{"source": "paper PMC7333345", "about": "“nanoDSF: In vitro Label-Free Method to Monitor Picornavirus Uncoating and Test Compounds Affecting Particle Stability” (Frontiers in Microbiology, 2020)", "target": "T1, RV-A2 (native virion capsid; VP1 hydrophobic pocket) (rhinovirus A2, UniProt P04936)", "T1 construct": "native purified virion (propagated virus, monolithic chromatography); 60 copies each of VP1-VP4 cut from the genome polyprotein; VP4 68 aa; with Capsid protein VP2; Capsid protein VP3; Capsid protein VP4", "T1 sequence (P04936 2-850)": "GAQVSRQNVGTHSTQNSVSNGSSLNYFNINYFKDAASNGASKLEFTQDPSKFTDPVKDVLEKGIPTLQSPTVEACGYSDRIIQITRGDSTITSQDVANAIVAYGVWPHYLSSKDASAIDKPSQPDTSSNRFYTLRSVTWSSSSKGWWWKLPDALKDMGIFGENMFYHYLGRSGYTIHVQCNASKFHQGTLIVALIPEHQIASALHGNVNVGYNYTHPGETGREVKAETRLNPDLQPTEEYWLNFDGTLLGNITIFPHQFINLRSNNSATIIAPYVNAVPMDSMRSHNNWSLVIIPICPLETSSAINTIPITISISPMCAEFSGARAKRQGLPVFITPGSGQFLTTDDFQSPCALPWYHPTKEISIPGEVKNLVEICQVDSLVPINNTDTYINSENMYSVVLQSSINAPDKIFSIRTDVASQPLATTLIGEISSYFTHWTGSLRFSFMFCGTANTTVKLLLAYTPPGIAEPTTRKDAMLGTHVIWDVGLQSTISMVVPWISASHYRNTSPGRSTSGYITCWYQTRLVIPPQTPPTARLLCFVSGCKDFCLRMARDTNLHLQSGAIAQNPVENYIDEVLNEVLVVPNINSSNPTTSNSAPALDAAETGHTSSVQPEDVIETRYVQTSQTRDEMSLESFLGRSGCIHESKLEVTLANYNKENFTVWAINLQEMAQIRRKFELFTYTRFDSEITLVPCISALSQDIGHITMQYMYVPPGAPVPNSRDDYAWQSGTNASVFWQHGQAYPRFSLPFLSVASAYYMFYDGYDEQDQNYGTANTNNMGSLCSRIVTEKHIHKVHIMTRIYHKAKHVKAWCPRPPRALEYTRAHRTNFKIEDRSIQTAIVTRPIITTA", "experiment": "nanoDSF (intrinsic tryptophan fluorescence, Em350/Em330 ratio)", "type": "binding", "conditions": "1 mM pleconaril, 2% DMSO, PBS, 1 °C/min, RV-A2 0.5 mg/ml (1 mg/ml in Figure 3 legend), whole virion, against DMSO control", "data": [{"smiles": "Cc1cc(CCCOc2c(C)cc(-c3noc(C(F)(F)F)n3)cc2C)on1", "note": "[pleconaril]", "values": [{"measurement": "shift of TA (50% N to A particle conversion)", "value": 5, "unit": "°C"}]}]}
